How the values were obtained:
DOT1L = molecular target: T1, DOT1L (Homo sapiens, UniProt Q8TEK3); experiment: DOT1L enzyme activity assay (cell-free); format: biochemical; details: 500 ng/well DOT1L, 2 h incubation
T1 construct: purchased BPS Bioscience 52202
Description: DOT1L enzyme activity was measured using 5 μM S-adenosyl methionine (SAM) as the methyl group donor, synthesized DOT1L substrate as the substrate, and 25 ng/μL DOT1L enzymes from BPS Bioscience (Cat. No. 52202; San Diego, CA, USA) according to the manufacturer’s instructions.

[1] = tested on: MDA-MB-231/Luc cells-implanted orthotopic mouse model; experiment: MDA-MB-231/Luc-implanted orthotopic mouse tumor model; format: in vivo; details: for tumor growth inhibition rate: end of experiment
Description: All animal experiments were conducted following the guidelines approved by the Seoul National University Institutional Animal Care and Use Committee (IACUC; permission number: SNU-180430-4-1). Female nude mice (BALB/c-nu), 4 weeks old, were purchased from Central Laboratory Animal, Inc. (Seoul, Korea) and housed under pathogen-free conditions with a 12 h light-dark schedule. Luciferase expressing MDA-MB-231 cells were inoculated orthotopically into the fourth fat pad of mice (1 × 10^7 cells in 100 μL of 50:50 PBS/Matrigel) using a 29-gauge needle. Two weeks after implantation, mice were randomized into vehicle control and treatment groups of six animals per group and were administered with vehicle (EtOH/Cremophor/Normal saline = 5:5:90), 9l (10 or 30 mg/kg body weight), EPZ-5676 (30 mg/kg body weight), or paclitaxel (5 mg/kg body weight, Sigma-Aldrich) as a positive reference control. Compounds were administered intraperitoneally three times per week for 38 days. An additional week later, anesthetized mice were positioned in IVIS (PerkinElmer, Waltham, MA, USA) and were imaged 15 min after injection of 150 mg/kg D-luciferin (Gold Biotechnology, St. Louis, MO, USA) resuspended in DPBS (w/o calcium or magnesium). Mice were euthanized and primary tumors and lungs were excised, weighed, and frozen for further biochemical analysis. The length (L), width (W), and height (H) of the tumors were also measured using a digital slide caliper (Mitutoyo, Kawasaki, Japan) once a week, and tumor volumes (mm^3) were estimated by the formula LWH/2. Toxicity was evaluated based on body weight loss.
A portion of the frozen tumors excised from nude mice on the termination day of the experiment was homogenized using a hand-held homogenizer in complete lysis buffer (Active Motif, Carlsbad, CA, USA). Aliquots were stored at −80 °C, and the levels of protein expression in the tumor lysates were determined. The protein concentrations in the tumor lysates were measured using the Bradford assay.

MDA-MB-231 cells = experiment: Wound healing assay (cell migration); format: cell-based, human; details: 24 h
Description: MDA-MB-231 human TNBC cells were grown to 90% confluence in a 6-well plate. Subsequently, each cell monolayer was artificially wounded using a Scratcher (SPL Life Sciences, Pocheon, Republic of Korea), and the detached cells were removed by washing with phosphate-buffered saline (PBS, Invitrogen Corp., Carlsbad, CA, USA). The wounded cultures were then incubated with medium containing 1% FBS and various concentrations of 9l and PsA for 24 h. The wounds were photographed at 0 and 24 h under an inverted microscope (Olympus, Tokyo, Japan). The wound areas were quantified using ImageJ software (National Institutes of Health, Bethesda, MD, USA) and presented as the percent wound healing (%) relative to the wound area at 0 h.

[2] = tested on: H3K79 methylation (DOT1L) in MDA-MB-231 cells; experiment: Western blotting of H3K79 methylation in MDA-MB-231 cells; format: cell-based, human; details: indicated concentrations, 48 h
Description: Total cell lysates were prepared in 2× sample loading buffer [250 mM Tris-HCl (pH 6.8), 10% glycerol, 4% sodium dodecyl sulfate (SDS), 2% β-mercaptoethanol, 0.006% bromophenol blue, 5 mM sodium orthovanadate, and 50 mM sodium fluoride; Bio-Rad, Hercules, CA, USA]. The protein concentrations of samples were quantified using the bicinchoninic acid (BCA) method and a BCA Protein Assay Kit (Thermo Fisher Scientific, Waltham, MA, USA). Equal amounts of protein (5–20 μg) were separated by 6–13% SDS-polyacrylamide gel electrophoresis (PAGE) and transferred to polyvinylidene fluoride membranes (Millipore, Bedford, MA, USA). The membranes were blocked with 5% bovine serum albumin (Sigma-Aldrich) and then probed with anti-DOT1L, anti-H3K79me2, anti-β-Actin, anti-histone H3, anti-H3K4me2, anti-H3K27me2, anti-H3K36me2, anti-H3K79me1, anti-H3K79me3, and anti-Vimentin antibodies purchased from Cell Signaling Technology (Beverly, MA, USA) or with anti-E-cadherin and anti-N-cadherin antibodies purchased from (BD Biosciences, San Jose, CA, USA). The blots were detected using a WEST-Queen detection system (iNtRON Biotechnology, Seongnam, Korea).

[3] = IVIS imaging, vs vehicle-treated control
[4] = western blotting of tumor lysates

T1 sequence (Q8TEK3 whole entry): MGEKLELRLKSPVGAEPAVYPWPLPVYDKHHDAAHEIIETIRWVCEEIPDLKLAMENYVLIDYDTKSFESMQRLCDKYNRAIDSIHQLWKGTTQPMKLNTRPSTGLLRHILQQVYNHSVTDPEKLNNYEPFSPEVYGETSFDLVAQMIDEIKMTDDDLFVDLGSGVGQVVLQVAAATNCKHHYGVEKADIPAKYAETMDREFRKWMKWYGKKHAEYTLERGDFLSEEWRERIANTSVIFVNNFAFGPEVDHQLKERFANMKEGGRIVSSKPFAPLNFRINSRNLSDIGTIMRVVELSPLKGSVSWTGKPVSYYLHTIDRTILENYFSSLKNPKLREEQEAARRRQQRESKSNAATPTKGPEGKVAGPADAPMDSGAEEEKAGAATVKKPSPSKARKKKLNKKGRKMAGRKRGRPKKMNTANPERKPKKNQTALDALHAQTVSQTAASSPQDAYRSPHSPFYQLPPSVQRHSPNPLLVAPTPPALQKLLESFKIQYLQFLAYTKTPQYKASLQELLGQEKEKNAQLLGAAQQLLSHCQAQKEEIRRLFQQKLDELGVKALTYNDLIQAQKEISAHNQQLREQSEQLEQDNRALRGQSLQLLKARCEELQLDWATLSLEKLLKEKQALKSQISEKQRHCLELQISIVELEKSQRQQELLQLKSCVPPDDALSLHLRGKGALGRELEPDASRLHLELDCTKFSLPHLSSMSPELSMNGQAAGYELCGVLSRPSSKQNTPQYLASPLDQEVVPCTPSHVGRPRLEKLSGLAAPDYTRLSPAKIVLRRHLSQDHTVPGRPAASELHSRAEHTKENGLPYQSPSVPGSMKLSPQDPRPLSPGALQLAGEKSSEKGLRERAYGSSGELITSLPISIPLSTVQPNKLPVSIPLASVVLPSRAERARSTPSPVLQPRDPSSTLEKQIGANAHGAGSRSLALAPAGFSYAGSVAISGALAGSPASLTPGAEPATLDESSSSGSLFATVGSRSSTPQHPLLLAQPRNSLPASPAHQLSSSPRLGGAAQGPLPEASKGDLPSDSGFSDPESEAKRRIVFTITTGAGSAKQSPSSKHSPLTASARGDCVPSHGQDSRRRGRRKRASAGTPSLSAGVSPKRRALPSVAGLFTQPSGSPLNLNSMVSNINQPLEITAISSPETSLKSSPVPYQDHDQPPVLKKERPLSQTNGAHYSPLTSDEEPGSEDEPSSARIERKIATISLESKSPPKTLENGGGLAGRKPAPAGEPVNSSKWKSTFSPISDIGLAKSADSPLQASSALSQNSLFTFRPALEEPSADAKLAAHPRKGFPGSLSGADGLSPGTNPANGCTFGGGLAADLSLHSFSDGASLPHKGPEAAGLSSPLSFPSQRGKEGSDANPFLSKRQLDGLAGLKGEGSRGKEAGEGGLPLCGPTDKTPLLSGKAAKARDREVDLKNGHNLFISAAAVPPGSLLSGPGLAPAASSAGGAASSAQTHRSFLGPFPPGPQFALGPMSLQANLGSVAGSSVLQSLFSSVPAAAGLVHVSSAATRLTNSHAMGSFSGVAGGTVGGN

CC(C)(C)c1ccc(C/C(=N\O)C(=O)NCC[Se]Sc2ccccc2)cc1 [9l, (E)-3-(4-(tert-Butyl)phenyl)-2-(hydroxyimino)-N-(2-((phenylthio)selanyl)ethyl)propanamide]
IC50 (DOT1L): 363 nM
tumor growth inhibition rate ([1]; 10 mg/kg i.p., three times per week for 38 days): 44.0%
tumor growth inhibition rate ([1]; 30 mg/kg i.p., three times per week for 38 days): 55.8%
toxicity / body weight change ([1]; 10 or 30 mg/kg i.p., three times per week for 38 days): No overt toxicity or changes in body weight
luminescence signal intensity from the primary tumor sites [1, 3]: decreased
luminescence signal intensity in excised lung tissues (lung metastasis) [1, 3]: efficiently suppressed
E-cadherin level in excised tumors [1, 4]: upregulated
H3K79me2 protein level in excised tumors [1, 4]: downregulated
Ki-67 expression in tumor tissues [1, 4]: significantly suppressed
N-cadherin protein level in excised tumors [1, 4]: downregulated
vimentin protein level in excised tumors [1, 4]: downregulated
wound closure (cell migration) (MDA-MB-231 cells): significantly inhibited
H3K79 methylations [2]: effectively suppressed H3K79 methylations in a concentration-dependent manner

From publication PMC7824081, “Inhibition of DOT1L by Half-Selenopsammaplin A Analogs Suppresses Tumor Growth and EMT-Mediated Metastasis in Triple-Negative Breast Cancer” (Pharmaceuticals, 2020)
